Experimental data from patent US10118131B2, “Method for preventing microbial growth on a filtration membrane” (KEMIRA OYJ, priority 2011, dated 2018).

Experiments:
[1] = Flux of membrane before and after soaking in biocide in synthetic sea water (flat sheet cell); details: for Initial flux: before soaking
Protocol: Flux and salt rejection of fresh membrane were measured before and after soaking. The membrane was placed in a flat sheet cell (Alfa Laval LabM20). The operating conditions were, feed pressure 20 bar (for sea water membrane 55 bar), salt (synthetic sea water prepared according to ASTM standard D1141), temperature 25° C. The flux measurement was done for 3 hours.
Soaking was done by mixing biocide with synthetic sea water. The concentration of the added biocide in the synthetic sea water was for PFA 14 and 84 mg/l as active substance, for peracetic acid (PAA) 7, 18 and 35 mg/l as active substance and sodium hypochlorite 20 mg/l as active substance. PFA was added to the synthetic seawater as an equilibrium solution having PFA content 14 weight-%, PAA was added as an equilibrium solution having PAA content 35 weight-% and sodium hypochlorite having concentration of 15 weight-%.
The soaking time was 24 or 144 hours. Performic acid equilibrium solution was made by mixing in 1:1 weight proportion of a solution that contained 50% hydrogen peroxide with a solution that contained 75 weight-% formic acid, 12 weight-% sulfuric acid and 13 weight-% water. After soaking membranes were placed again to the flat sheet cell and salt rejection and flux were measured at the same conditions as before soaking.

[2] = Laboratory scale continuous filtration experiment, PFA added continuously into feed
Protocol: The impact of PFA on membrane was further studied by a laboratory scale continuous filtration experiment. The type of membrane used in the experiment was brackish water membrane (FilmTec BW30LE).
The continuous filtration has been done in parallel. From a single brackish water tank the water was pumped to two parallel lines with flat sheet cells having similar brackish water membrane. In one line PFA was added continuously into feed and in other line (control) there was no PFA addition. The filtration conditions were as follows: pressure 15 bar, salt (sea salt): 2 g/l, Temperature: 20° C., flow rate: 48 l/h, PFA dosing rate: 6.5 g/h equilibrium solution having PFA active substance concentration 14 weight-% (=19.8 ppm active substance/l of brackish water). Flux and conductivity of permeate and concentrate were monitored and collected over time (for 30 days).

With `[Na+].[O-]Cl` [Hypochlorite, sodium hypochlorite] the “differences between flux before and after soaking” value ([1]; not told) was > 15%.
In the case of `CC(=O)OO` [Peracetic acid, peracetic acid], the Flux after soaking ([1]; 7 mg/l active substance in synthetic sea water, soaking 144 hour) is reported as 73, the Flux after soaking ([1]; 18 mg/l active substance in synthetic sea water, soaking 144 hour) is reported as 53 and the Flux after soaking ([1]; 35 mg/l active substance in synthetic sea water, soaking 144 hour) is reported as 44. The Initial flux ([1]; membrane later soaked at 7 mg/l active substance, 144 hour) was 86, the Initial flux ([1]; membrane later soaked at 18 mg/l active substance, 144 hour) was 91 and the Initial flux ([1]; membrane later soaked at 35 mg/l active substance, 144 hour) was 86.
`O=COO` [Performic acid, performic acid] showed a Flux after soaking ([1]; 14 mg/l active substance in synthetic sea water, soaking 144 hour) of 84, a Flux after soaking ([1]; 84 mg/l active substance in synthetic sea water, soaking 24 hour) of 95 and an Initial flux ([1]; membrane later soaked at 14 mg/l active substance, 144 hour) of 86. For the same compound, the Initial flux ([1]; membrane later soaked at 84 mg/l active substance, 24 hour) was 98, the “differences between flux before and after soaking” value ([1]; soaked membranes of Table 1) was “less than 15%” and the Initial permeate flux ([2]; 19.8 ppm active substance continuously in feed, 15 bar, sea salt 2 g/l, 20° C.) was 250 g/h. For the same compound, the Final permeate flux ([2]; 19.8 ppm active substance continuously in feed, 30 days, 15 bar, sea salt 2 g/l, 20° C.) was 250 g/h and the “changes in flux over test period” value ([2]; FIG. 1 B, PFA added continuously, 30 days) was “small”.
